The values below come from patent US20240150360A1 (THE REGENTS OF THE UNIVERSITY OF MICHIGAN, priority 2021, published 2024).

One assay deals with T1, CBP (Homo sapiens, UniProt Q92793).
T1 construct: endogenous in cells; host or cells: 22Rv1 (ATCC CRL-2505) human prostate cancer cells
Briefly: CBP degradation in 22Rv1 cells (5 h). The format is cell-based. The conditions noted are these: 22Rv1 cells, 5 h; for Dmax: 22Rv1, 5 h, read-out: CBP Degradation (22Rv1, 5 h) DCmax. An excerpt: (§1) Biological Assays. […] Cells with 3-8 passages after purchase were used in experiments.

For another assay, the system named is 22Rv1 cells. Briefly: Cell growth inhibition assay (CellTiter-Glo) in 22Rv1. Format: cell-based, human. The conditions noted are these: Homo sapiens, 22Rv1, 96 h, 22Rv1 cells, 96 h incubation; read-out: Cell Growth Inhibition (IC50) 22Rv1. Summed up: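 22Rv1 prostate cancer cells (passages 3-8, DMEM with 10% FBS) were seeded at 4000 cells/well with compound, 3-fold dilutions from 10 μM final. After 96 h at 37° C and 5% CO2, growth was read by CellTiter-Glo 2.0 luminescence.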

Another assay deals with HL60. Briefly: Cell growth inhibition in HL60. The format is cell-based. The conditions noted are these: Homo sapiens, HL-60, HL60 cells; read-out: Cell Growth Inhibition (IC50) HL60.
For a further assay, the target named is T2, P300 (Homo sapiens, UniProt Q09472).
T2 construct: endogenous in cells; host or cells: 22Rv1 (ATCC CRL-2505) human prostate cancer cells
T2 sequence (Q09472 whole entry): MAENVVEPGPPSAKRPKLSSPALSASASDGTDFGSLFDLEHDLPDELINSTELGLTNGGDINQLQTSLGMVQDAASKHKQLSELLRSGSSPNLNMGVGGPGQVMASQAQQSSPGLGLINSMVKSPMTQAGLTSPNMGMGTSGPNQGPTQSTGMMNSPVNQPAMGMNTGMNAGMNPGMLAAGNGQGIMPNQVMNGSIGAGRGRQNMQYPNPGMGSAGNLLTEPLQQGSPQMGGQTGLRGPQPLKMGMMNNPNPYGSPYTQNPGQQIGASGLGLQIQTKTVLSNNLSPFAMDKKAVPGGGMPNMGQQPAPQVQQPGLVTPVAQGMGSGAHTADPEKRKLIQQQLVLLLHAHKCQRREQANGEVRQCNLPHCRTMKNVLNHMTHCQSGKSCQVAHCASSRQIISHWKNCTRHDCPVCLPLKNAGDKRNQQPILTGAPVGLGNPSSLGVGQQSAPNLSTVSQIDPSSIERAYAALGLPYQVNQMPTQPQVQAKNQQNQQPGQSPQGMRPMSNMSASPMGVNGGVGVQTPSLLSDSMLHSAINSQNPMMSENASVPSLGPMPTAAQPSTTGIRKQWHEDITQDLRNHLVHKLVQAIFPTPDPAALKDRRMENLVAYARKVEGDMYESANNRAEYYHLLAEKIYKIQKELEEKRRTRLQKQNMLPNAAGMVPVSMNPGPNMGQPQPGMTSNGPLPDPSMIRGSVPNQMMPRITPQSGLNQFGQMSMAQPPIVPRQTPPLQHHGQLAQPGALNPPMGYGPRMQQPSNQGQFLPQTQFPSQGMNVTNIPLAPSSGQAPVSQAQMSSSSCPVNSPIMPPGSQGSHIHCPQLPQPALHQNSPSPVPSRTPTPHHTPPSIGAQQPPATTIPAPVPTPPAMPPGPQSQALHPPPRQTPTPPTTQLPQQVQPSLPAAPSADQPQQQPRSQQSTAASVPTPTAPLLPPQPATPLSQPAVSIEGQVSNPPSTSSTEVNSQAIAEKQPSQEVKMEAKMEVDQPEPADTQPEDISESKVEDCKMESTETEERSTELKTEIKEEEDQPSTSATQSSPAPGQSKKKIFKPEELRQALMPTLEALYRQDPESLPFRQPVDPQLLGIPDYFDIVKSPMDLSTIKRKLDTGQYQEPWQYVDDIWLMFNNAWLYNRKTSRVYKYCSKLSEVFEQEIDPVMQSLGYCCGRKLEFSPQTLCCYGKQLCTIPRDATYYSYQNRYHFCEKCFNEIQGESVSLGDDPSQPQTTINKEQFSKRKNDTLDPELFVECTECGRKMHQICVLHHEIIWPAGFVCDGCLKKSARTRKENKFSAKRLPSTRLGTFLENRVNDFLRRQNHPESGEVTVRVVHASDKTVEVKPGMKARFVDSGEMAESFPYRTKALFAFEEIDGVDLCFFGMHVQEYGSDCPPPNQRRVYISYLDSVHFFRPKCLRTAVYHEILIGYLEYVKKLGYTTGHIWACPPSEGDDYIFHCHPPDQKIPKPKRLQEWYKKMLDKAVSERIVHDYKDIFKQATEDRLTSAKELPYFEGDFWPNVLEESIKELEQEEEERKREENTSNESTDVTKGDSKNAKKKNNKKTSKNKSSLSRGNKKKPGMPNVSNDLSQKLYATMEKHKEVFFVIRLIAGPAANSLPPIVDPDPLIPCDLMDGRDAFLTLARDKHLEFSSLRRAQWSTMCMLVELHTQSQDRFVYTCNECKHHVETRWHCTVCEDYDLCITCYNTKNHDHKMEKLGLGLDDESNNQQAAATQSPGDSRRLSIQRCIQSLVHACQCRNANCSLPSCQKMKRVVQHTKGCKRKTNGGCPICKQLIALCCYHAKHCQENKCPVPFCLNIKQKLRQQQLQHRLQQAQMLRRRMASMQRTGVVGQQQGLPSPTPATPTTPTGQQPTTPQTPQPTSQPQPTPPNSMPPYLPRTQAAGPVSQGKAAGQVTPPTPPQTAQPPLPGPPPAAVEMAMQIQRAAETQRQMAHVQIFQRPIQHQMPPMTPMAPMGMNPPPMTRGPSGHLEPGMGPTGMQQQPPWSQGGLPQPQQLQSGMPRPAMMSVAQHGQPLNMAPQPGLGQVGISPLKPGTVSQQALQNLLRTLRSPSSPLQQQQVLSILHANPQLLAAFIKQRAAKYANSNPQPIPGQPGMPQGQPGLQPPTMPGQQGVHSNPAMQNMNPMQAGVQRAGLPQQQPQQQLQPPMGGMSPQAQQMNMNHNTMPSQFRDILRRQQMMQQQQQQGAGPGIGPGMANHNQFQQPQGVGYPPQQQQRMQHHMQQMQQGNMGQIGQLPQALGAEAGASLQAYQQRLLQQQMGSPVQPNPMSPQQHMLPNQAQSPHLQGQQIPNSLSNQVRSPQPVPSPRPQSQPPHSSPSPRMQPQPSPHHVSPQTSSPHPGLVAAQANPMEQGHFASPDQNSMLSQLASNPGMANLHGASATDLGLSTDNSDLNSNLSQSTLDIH
Briefly: P300 degradation in 22Rv1 cells (5 h). The format is cell-based. The conditions noted are these: 22Rv1 cells, 5 h; for Dmax: read-out: P300 Degradation (22Rv1, 5 h) DCmax.
From the text: as §1

Where only a bound is given, the exact number is not on record here.

T1 sequence (Q92793 whole entry): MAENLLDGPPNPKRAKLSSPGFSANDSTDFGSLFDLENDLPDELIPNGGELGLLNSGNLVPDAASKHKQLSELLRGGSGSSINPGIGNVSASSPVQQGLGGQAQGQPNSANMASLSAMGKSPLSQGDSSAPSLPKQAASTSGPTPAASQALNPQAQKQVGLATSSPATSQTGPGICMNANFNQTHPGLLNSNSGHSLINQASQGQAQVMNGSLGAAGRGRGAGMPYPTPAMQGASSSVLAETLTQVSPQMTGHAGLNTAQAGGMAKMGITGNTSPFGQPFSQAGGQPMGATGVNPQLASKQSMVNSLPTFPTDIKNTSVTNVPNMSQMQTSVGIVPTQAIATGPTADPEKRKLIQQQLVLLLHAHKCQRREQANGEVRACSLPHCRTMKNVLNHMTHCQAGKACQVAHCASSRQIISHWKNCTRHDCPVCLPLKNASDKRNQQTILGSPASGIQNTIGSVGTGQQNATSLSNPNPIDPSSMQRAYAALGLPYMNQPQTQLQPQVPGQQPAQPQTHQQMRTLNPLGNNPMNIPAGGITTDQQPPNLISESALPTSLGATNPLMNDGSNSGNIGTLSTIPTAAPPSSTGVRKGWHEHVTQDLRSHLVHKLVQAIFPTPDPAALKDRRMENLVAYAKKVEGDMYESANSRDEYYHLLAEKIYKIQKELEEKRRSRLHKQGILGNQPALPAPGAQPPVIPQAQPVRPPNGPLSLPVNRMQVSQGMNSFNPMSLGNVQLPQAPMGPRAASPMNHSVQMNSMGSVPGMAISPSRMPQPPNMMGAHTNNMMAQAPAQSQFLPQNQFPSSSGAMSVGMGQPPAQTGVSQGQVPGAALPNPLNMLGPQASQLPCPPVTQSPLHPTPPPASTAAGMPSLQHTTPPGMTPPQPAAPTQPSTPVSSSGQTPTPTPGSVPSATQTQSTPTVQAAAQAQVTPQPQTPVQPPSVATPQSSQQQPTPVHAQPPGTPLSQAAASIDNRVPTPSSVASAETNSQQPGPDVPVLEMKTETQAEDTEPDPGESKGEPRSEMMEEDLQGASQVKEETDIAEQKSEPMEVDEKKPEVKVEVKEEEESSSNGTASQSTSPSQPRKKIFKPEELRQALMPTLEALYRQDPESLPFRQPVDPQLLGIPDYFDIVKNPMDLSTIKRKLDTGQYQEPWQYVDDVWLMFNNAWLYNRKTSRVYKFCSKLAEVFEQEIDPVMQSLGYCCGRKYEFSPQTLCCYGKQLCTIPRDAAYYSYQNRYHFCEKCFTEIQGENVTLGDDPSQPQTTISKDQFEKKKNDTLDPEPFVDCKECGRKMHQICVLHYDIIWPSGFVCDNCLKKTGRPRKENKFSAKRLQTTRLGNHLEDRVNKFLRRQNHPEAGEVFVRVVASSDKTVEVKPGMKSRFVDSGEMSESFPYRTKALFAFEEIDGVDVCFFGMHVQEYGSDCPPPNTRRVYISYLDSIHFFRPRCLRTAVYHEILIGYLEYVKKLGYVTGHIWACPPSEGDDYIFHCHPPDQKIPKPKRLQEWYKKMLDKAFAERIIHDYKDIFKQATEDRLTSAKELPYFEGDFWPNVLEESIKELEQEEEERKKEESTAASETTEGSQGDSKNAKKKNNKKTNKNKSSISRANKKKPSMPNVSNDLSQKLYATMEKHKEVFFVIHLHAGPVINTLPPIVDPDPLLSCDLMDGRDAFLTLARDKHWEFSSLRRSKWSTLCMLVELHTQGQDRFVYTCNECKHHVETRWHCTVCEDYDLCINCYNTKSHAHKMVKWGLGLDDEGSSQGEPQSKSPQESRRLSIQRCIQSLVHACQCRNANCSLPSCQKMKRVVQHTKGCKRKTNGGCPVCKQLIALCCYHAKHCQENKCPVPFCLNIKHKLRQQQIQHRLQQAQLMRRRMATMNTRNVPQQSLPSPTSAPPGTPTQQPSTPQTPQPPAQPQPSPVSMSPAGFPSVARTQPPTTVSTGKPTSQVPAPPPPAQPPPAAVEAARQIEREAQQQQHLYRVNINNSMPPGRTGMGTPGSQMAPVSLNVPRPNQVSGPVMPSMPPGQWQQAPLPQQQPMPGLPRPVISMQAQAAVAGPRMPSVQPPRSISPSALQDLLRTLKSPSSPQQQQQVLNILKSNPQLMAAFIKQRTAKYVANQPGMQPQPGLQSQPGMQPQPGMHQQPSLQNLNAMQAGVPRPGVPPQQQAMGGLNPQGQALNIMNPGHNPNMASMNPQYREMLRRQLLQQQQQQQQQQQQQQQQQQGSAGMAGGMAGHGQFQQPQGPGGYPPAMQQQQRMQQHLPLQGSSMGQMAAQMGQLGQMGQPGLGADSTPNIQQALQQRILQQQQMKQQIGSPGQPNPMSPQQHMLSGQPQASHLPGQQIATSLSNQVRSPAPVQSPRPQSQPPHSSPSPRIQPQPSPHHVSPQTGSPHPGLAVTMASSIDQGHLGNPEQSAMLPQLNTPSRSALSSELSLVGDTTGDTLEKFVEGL

With `Cn1cc(-c2cc3c(cc2C(F)F)N(c2nn(C4CCN(C(=O)CN5Cc6cc7c(cc6C5)C(=O)N(C5CCC(=O)NC5=O)C7=O)CC4)c4c2CN(C(=O)C2CC2)CC4)CCC3)cn1` (stereo not drawn) [CP-054, 6-(2-(4-(5-(cyclopropanecarbonyl)-3-(7-(difluoromethyl)-6-(1-methyl-1H-pyrazol-4-yl)-3,4-dihydroquinolin-1(2H)-yl)-4,5,6,7-tetrahydro-1H-pyrazolo[4,3-c]pyridin-1-yl)piperidin-1-yl)-2-oxoethyl)-2-(2,6-dioxopiperidin-3-yl)-6,7-dihydropyrrolo[3,4-f]isoindole-1,3(2H,5H)-dione], the Dmax at CBP and on P300 was < 50% throughout. The DC50 on CBP and on P300 was > 1 µM each time. Besides, the concentration for half-maximal inhibition (IC50) with 22Rv1 cells and with HL60 was < 10 µM each time.
As to `CC(=O)N1CCc2c(c(N3CCCc4cc(-c5cnn(C)c5)c(C(F)F)cc43)nn2C[C@H]2CC[C@H](N3CCc4cc5c(cc4C3)C(=O)N(C3CCC(=O)NC3=O)C5=O)CC2)C1` (stereo partly drawn) [CP-041, 6-(4-((5-acetyl-3-(7-(difluoromethyl)-6-(1-methyl-1H-pyrazol-4-yl)-3,4-dihydroquinolin-1(2H)-yl)-4,5,6,7-tetrahydro-1H-pyrazolo[4,3-c]pyridin-1-yl)methyl)cyclohexyl)-2-(2,6-dioxopiperidin-3-yl)-5,6,7,8-tetrahydro-1H-pyrrolo[3,4-g]isoquinoline-1,3(2H)-dione], the Dmax at CBP and at P300 was > 90% each time. Also, the half-maximal degradation concentration (DC50) at CBP and on P300 was < 0.01 µM throughout. The values for the IC50 in the assay on 22Rv1 cells and in the assay on HL60 were < 1 µM and < 0.1 µM, respectively.
As to `Cn1cc(-c2cc3c(cc2C(F)F)N(c2nn(C4CCN(C(=O)CN5Cc6cc7c(cc6C5)C(=O)N(C5CCC(=O)NC5=O)C7=O)CC4)c4c2CNCC4)CCC3)cn1` (stereo not drawn) [CP-057, 6-(2-(4-(3-(7-(difluoromethyl)-6-(1-methyl-1H-pyrazol-4-yl)-3,4-dihydroquinolin-1(2H)-yl)-4,5,6,7-tetrahydro-1H-pyrazolo[4,3-c]pyridin-1-yl)piperidin-1-yl)-2-oxoethyl)-2-(2,6-dioxopiperidin-3-yl)-6,7-dihydropyrrolo[3,4-f]isoindole-1,3(2H,5H)-dione], the Dmax on CBP and at P300 was < 50% in each case. In addition, the DC50 at CBP and on P300 was > 1 µM throughout. The IC50 in the assay with 22Rv1 cells and with HL60 was > 10 µM each time.
With `CC(=O)N1CCc2c(c(N3CCCc4cc(CCC(C)C)c(C(F)F)cc43)nn2C2CCN(C(=O)CN3Cc4cc5c(cc4C3)C(=O)N(C3CCC(=O)NC3=O)C5=O)CC2)C1` (stereo not drawn) [CP-026, 6-(2-(4-(5-acetyl-3-(7-(difluoromethyl)-6-isopentyl-3,4-dihydroquinolin-1(2H)-yl)-4,5,6,7-tetrahydro-1H-pyrazolo[4,3-c]pyridin-1-yl)piperidin-1-yl)-2-oxoethyl)-2-(2,6-dioxopiperidin-3-yl)-6,7-dihydropyrrolo[3,4-f]isoindole-1,3(2H,5H)-dione], the Dmax at CBP was > 90%; at P300, > 70%. Besides, the DC50 on CBP and on P300 was < 0.01 µM in each case. The IC50 was < 1 µM in the assay with 22Rv1 cells and < 0.1 µM with HL60.
Take `CC(=O)N1CCc2c(c(N3CCCc4cc(-c5cccs5)c(C(F)F)cc43)nn2C2CCN(C(=O)CN3Cc4cc5c(cc4C3)C(=O)N(C3CCC(=O)NC3=O)C5=O)CC2)C1` (stereo not drawn) [CP-024, 6-(2-(4-(5-acetyl-3-(7-(difluoromethyl)-6-(thiophen-2-yl)-3,4-dihydroquinolin-1(2H)-yl)-4,5,6,7-tetrahydro-1H-pyrazolo[4,3-c]pyridin-1-yl)piperidin-1-yl)-2-oxoethyl)-2-(2,6-dioxopiperidin-3-yl)-6,7-dihydropyrrolo[3,4-f]isoindole-1,3(2H,5H)-dione]: the Dmax was > 90% on CBP and > 70% on P300. In addition, the half-maximal degradation concentration (DC50) at CBP and on P300 was < 0.01 µM in each case. Moreover, the IC50 with 22Rv1 cells was < 1 µM; with HL60, < 0.1 µM.
As for `CC(=O)N1CCc2c(c(N3CCCc4cc(-c5cnn(C)c5)c(C(F)F)cc43)nn2C2CCC(N3CCc4cc5c(cc4C3)C(=O)N(C3CCC(=O)NC3=O)C5=O)CC2)C1` (stereo not drawn) [CP-038, 6-(4-(5-acetyl-3-(7-(difluoromethyl)-6-(1-methyl-1H-pyrazol-4-yl)-3,4-dihydroquinolin-1(2H)-yl)-4,5,6,7-tetrahydro-1H-pyrazolo[4,3-c]pyridin-1-yl)cyclohexyl)-2-(2,6-dioxopiperidin-3-yl)-5,6,7,8-tetrahydro-1H-pyrrolo[3,4-g]isoquinoline-1,3(2H)-dione], the Dmax at CBP and at P300 was > 90% throughout. The DC50 at CBP and at P300 was < 0.01 µM in each case. The IC50 in the assay on 22Rv1 cells and in the assay on HL60 was < 0.1 µM each time.
With `CC(=O)N1CCc2cc3c(cc2C1)CCCN3c1nn(C2CCN(C(=O)CN3Cc4cc5c(cc4C3)C(=O)N(C3CCC(=O)NC3=O)C5=O)CC2)c2c1CN(C(C)=O)CC2` (stereo not drawn) [CP-080, 6-(2-(4-(5-acetyl-3-(7-acetyl-3,4,6,7,8,9-hexahydropyrido[3,4-g]quinolin-1(2H)-yl)-4,5,6,7-tetrahydro-1H-pyrazolo[4,3-c]pyridin-1-yl)piperidin-1-yl)-2-oxoethyl)-2-(2,6-dioxopiperidin-3-yl)-6,7-dihydropyrrolo[3,4-f]isoindole-1,3(2H,5H)-dione], the Dmax on CBP and at P300 was > 70% each time. Besides, the 50% degradation concentration (DC50) on CBP and at P300 was < 0.01 µM each time. The IC50 with 22Rv1 cells and in the assay on HL60 was > 10 µM each time.
For the compound `CC(=O)N1CCc2c(c(N3CCCc4cc(Br)c(C(F)F)cc43)nn2C2CCN(C(=O)CN3Cc4cc5c(cc4C3)C(=O)N(C3CCC(=O)NC3=O)C5=O)CC2)C1` (stereo not drawn) [CP-016, 6-(2-(4-(5-acetyl-3-(6-bromo-7-(difluoromethyl)-3,4-dihydroquinolin-1(2H)-yl)-4,5,6,7-tetrahydro-1H-pyrazolo[4,3-c]pyridin-1-yl)piperidin-1-yl)-2-oxoethyl)-2-(2,6-dioxopiperidin-3-yl)-6,7-dihydropyrrolo[3,4-f]isoindole-1,3(2H,5H)-dione], the Dmax on CBP and on P300 was < 50% in each case. For the same compound, the DC50 at CBP and at P300 was > 1 µM each time. Also, the IC50 in the assay with 22Rv1 cells was < 1 µM; with HL60, < 0.1 µM.
As to `Cn1cc(-c2cc3c(cc2C(F)F)N(c2nn(C4CCN(C(=O)CN5Cc6cc7c(cc6C5)C(=O)N(C5CCC(=O)NC5=O)C7=O)CC4)c4c2CN(CC(F)(F)F)CC4)CCC3)cn1` (stereo not drawn), the Dmax on CBP and on P300 was < 50% throughout. Also, the results for the DC50 at CBP and at P300 were < 1 µM and > 1 µM, respectively. Further, the IC50 in the assay on 22Rv1 cells was > 10 µM; in the assay on HL60, < 10 µM.

The term DC50 denotes the concentration giving 50% degradation. A high value points to a less potent degrader. In general, IC50 refers to the concentration needed to halve the response being measured.
